Measured values taken from patent US20220347085A1, “REPELLENT COMPOSITION AND USES” (Université Bourgogne, priority 2019, published 2022).

Tested on: Drosophila suzukii
Assay: Anesthesia test, Drosophila suzukii
Assay type: in vivo
Conditions: female flies
Protocol: The devices used were similar to the devices for studying the courtship (example 1 above), except for the volume of the space into which the files were introduced, which was 45.24 or 22.62 cm^3. 9 discs of filter paper (Whatman, filter paper 42), each soaked in 10 μl of a composition comprising butyric acid and/or propionic acid and/or a derivative of propionic acid diluted in paraffin oil were deposited in the device. The different compositions used comprised, respectively, 2% propionic acid or 2% butyric acid or 5% ethyl propanoate or 10% ethyl propanoate or 30% ethyl propanoate. For each composition, the number of flies was, respectively, 30 and 24 males, 30 and 11 females for Drosophila melanogaster, and 24, 16 and 4 males, 28, 26, 6, 5 and 4 females for Drosophila suzukii. In order to avoid any contact of the flies with the soaked disks of paper, a gauze (netting) was arranged above said papers. The drosophilae could move freely on said gauze. The quantity of compound, butyric acid or propionic acid, or of ethyl propanoate (odor) volatilized in the behavior chamber was equivalent to that of the device used for the courtship. Likewise, the flies were never in direct contact with the composition (no taste perception), only with the volatile particles (olfactory perception). The flies tested were introduced simultaneously, by group, into the enclosure. Their behavior was filed for 10 minutes, and a time required for leading to anesthesia was calculated over this period, depending on the concentration of butyric acid or propionic acid or ethyl propanoate used. The flies were considered anesthetized when they stopped moving and fell on their side.

CCOC(=O)CC [ethyl propanoate]
time elapsed leading to anesthesia (5% in paraffin oil): approximately 6 minutes | time elapsed leading to anesthesia (10% in paraffin oil): approximately 4 minutes | time elapsed leading to anesthesia (30% in paraffin oil): 2 to 3 min
